These results are taken from ChEMBL document CHEMBL4368890, “Progress toward allosteric ligands of metabotropic glutamate 7 (mGlu7) receptor: 2008-present” (Medchemcomm, 2019).

Molecules are shown by their SMILES.

Series [1] addresses Metabotropic glutamate receptor 4 (Homo sapiens, UniProt Q14833). Description: Agonist activity at mGlu4 (unknown origin).
The target of series [2] is T1, Metabotropic glutamate receptor 7 (Homo sapiens, UniProt Q14831). Description: Agonist activity at human mGlu7 expressed in CHO cells assessed as reduction in forskolin-induced cAMP production. The format is functional, cell-based. (Cyclic AMP is a second messenger, typically raised through Gs and lowered through Gi signalling.)
T1 sequence (Q14831 whole entry): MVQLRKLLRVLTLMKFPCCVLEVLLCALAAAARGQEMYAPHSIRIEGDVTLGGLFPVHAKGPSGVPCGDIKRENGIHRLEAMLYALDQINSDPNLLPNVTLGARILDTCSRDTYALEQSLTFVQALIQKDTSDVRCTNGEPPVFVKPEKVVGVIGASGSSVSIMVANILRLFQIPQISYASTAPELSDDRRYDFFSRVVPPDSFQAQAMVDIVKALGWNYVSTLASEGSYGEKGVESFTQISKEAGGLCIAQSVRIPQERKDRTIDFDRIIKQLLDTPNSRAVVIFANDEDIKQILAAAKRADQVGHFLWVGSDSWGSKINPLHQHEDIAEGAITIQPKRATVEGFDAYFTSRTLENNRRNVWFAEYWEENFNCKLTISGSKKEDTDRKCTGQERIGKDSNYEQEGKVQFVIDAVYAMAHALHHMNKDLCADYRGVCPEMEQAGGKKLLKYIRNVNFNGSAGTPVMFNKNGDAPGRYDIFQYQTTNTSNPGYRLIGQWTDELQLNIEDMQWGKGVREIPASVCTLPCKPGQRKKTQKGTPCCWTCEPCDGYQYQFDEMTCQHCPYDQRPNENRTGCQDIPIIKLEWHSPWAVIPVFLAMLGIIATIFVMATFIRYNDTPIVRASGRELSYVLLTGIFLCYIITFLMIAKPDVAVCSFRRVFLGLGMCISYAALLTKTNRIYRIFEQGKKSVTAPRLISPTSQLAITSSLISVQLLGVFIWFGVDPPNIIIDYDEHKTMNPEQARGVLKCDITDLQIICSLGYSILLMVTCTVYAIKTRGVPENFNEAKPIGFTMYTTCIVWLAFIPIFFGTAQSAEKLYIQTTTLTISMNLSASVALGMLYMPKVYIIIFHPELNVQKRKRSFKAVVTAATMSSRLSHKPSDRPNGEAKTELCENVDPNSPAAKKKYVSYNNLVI
Series [3] can be described thus: Lipophilicity, logP of the compound. The format is physicochemical. The settings on record: octanol/water.
Series [4] deals with T1, Metabotropic glutamate receptor 7. Description: Allosteric agonist activity at human mGlu7 expressed in CHO cells assessed as reduction in forskolin-induced cAMP production after 30 mins by cAMP reagent-based assay. The format is functional, cell-based.
For series [5] the target is unchanged. Kind of series: Allosteric agonist activity at human mGlu7 expressed in CHO cells assessed as reduction in forskolin-induced cAMP production after 30 mins by cAMP reagent-based assay relative to control. The format is functional, cell-based.
Series [6] has the same target. Kind of series: Agonist activity at mGlu7 (unknown origin).
Series [7] concerns the target T2, Metabotropic glutamate receptor 3 (Homo sapiens, UniProt Q14832). Description: Allosteric agonist activity at human mGlu3 expressed in CHO cells assessed as reduction in forskolin-induced cAMP production after 30 mins by cAMP reagent-based assay. In kind it is functional, cell-based.
Series [8] addresses T3, Metabotropic glutamate receptor 5 (Homo sapiens, UniProt P41594). Kind of series: Allosteric agonist activity at human mGlu5 expressed in CHO cells assessed as reduction in forskolin-induced cAMP production after 30 mins by cAMP reagent-based assay. In kind it is functional, cell-based.
Series [9] has as its target Metabotropic glutamate receptor 2 (Homo sapiens, UniProt Q14416). Description: Allosteric activity at mGlu2 (unknown origin).
Series [10] is described as follows: […], Kp in mouse at 10 mg/kg, ip after 1 hr. The format is ADME, organism-based. The settings on record: in vivo.
Series [11] has as its target Metabotropic glutamate receptor 1 (Homo sapiens, UniProt Q13255). Description: Allosteric activity at mGlu1 (unknown origin).
In series [12] the target is Metabotropic glutamate receptor 6 (Homo sapiens, UniProt O15303). Description: Allosteric activity at mGlu6 (unknown origin).
Sequence of Metabotropic glutamate receptor 6 (O15303 whole entry): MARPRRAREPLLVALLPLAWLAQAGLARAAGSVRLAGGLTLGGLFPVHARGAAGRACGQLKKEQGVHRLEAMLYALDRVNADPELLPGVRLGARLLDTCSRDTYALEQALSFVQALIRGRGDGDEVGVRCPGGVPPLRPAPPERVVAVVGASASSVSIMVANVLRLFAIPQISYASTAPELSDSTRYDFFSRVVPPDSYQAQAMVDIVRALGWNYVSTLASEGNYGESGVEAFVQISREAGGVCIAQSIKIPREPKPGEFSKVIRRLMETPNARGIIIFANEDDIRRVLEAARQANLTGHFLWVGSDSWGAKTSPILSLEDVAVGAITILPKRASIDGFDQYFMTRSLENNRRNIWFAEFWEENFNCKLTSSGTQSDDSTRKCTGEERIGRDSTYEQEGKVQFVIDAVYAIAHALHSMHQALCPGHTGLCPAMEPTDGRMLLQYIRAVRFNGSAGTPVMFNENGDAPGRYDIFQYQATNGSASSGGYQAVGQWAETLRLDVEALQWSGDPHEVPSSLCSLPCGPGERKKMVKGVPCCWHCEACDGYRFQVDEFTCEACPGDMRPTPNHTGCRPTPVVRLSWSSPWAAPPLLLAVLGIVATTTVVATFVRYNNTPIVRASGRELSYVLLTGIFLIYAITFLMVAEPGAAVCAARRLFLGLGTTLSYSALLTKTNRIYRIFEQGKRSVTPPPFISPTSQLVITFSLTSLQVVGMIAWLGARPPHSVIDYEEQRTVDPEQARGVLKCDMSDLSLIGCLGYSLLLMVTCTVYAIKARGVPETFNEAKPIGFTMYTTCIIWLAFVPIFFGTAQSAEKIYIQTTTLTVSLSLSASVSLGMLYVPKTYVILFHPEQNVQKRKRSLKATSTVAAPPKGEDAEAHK
Series [13] addresses T2, Metabotropic glutamate receptor 3. Kind of series: Allosteric activity at mGlu3 (unknown origin).
Series [14] has as its target T3, Metabotropic glutamate receptor 5. Description: Allosteric activity at mGlu5 (unknown origin).
Series [15] concerns the target T1, Metabotropic glutamate receptor 7. Description: Negative allosteric modulator activity at human mGlu7 assessed as reduction in Ca2+ mobilization by HTS assay. In kind it is functional. (Calcium assays in cells follow changes in intracellular calcium, usually with a dye or a luminescent sensor.)
The target in series [16] is Metabotropic glutamate receptor 7 (Mus musculus, UniProt Q68ED2). Kind of series: Agonist activity at mouse mGlu7.
Sequence of Metabotropic glutamate receptor 7 (Mus musculus, UniProt Q68ED2) (Q68ED2 whole entry): as the sequence (Q14831 whole entry) above, with R5G, A27V, S488T, A520P, D578N counted along it
Series [17] concerns the target T1, Metabotropic glutamate receptor 7. Description: Agonist activity at human mGlu7.
The target of series [18] is Metabotropic glutamate receptor 8 (Rattus norvegicus, UniProt P70579). Description: Agonist activity at rat mGlu8 receptor expressed in HEK cell co-expressing Galpha15 (unknown origin) assessed as […] intracellular Ca2+ mobilization by Fluo-4-AM dye based fluorescence assay. The format is functional.

T2 sequence (Q14832 whole entry): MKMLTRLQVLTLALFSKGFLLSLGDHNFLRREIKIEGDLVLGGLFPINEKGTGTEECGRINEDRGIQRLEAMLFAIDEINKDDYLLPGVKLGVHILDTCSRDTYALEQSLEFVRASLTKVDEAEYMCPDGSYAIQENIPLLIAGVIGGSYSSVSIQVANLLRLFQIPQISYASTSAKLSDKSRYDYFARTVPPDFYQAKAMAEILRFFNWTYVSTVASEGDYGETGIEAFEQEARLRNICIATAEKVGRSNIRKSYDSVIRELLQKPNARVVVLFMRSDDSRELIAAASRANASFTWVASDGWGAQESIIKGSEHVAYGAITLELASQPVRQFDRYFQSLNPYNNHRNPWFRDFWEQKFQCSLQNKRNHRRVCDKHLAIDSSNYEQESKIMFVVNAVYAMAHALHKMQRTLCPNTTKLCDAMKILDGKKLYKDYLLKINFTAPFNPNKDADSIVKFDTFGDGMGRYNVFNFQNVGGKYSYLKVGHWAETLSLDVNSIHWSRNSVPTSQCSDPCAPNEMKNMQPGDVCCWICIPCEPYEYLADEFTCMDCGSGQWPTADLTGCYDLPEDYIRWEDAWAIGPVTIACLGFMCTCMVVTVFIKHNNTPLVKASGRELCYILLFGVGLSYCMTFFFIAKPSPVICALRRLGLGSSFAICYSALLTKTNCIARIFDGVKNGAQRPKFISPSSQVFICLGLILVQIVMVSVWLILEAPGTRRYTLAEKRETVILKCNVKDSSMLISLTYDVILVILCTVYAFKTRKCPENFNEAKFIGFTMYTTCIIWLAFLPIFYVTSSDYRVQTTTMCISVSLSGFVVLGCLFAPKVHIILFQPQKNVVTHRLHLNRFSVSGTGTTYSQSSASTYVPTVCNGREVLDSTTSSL
T3 sequence (P41594 whole entry): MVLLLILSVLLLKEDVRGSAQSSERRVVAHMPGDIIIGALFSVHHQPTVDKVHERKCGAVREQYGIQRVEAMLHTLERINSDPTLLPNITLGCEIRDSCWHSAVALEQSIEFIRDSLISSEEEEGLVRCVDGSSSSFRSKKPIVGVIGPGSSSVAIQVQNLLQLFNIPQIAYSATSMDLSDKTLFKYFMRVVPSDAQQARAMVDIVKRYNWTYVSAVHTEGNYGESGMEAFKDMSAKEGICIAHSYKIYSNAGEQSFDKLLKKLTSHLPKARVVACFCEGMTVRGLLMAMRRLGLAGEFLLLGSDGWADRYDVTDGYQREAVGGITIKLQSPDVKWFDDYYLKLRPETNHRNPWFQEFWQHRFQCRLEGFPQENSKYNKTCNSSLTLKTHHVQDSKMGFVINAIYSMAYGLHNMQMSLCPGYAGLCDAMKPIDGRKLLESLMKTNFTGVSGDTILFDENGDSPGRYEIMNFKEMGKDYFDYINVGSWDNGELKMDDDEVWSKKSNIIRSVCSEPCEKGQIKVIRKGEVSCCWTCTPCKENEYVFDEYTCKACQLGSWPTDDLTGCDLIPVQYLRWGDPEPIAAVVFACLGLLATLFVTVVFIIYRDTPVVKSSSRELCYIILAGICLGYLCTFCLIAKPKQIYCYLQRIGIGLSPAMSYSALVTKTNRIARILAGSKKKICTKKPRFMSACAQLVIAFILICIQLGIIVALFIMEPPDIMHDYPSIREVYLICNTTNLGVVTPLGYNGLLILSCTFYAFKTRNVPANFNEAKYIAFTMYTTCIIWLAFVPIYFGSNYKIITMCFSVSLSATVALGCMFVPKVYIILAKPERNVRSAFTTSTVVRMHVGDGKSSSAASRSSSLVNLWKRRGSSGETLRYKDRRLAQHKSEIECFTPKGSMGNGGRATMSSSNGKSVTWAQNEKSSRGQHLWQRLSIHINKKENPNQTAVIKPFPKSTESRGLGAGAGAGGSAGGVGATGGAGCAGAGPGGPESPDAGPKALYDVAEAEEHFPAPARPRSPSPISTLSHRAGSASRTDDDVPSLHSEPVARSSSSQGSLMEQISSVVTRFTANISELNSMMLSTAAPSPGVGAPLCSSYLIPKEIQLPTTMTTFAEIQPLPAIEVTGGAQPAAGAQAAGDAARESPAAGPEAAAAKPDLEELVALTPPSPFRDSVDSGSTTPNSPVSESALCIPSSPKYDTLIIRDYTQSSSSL
Sequence of Metabotropic glutamate receptor 2 (Q14416 whole entry): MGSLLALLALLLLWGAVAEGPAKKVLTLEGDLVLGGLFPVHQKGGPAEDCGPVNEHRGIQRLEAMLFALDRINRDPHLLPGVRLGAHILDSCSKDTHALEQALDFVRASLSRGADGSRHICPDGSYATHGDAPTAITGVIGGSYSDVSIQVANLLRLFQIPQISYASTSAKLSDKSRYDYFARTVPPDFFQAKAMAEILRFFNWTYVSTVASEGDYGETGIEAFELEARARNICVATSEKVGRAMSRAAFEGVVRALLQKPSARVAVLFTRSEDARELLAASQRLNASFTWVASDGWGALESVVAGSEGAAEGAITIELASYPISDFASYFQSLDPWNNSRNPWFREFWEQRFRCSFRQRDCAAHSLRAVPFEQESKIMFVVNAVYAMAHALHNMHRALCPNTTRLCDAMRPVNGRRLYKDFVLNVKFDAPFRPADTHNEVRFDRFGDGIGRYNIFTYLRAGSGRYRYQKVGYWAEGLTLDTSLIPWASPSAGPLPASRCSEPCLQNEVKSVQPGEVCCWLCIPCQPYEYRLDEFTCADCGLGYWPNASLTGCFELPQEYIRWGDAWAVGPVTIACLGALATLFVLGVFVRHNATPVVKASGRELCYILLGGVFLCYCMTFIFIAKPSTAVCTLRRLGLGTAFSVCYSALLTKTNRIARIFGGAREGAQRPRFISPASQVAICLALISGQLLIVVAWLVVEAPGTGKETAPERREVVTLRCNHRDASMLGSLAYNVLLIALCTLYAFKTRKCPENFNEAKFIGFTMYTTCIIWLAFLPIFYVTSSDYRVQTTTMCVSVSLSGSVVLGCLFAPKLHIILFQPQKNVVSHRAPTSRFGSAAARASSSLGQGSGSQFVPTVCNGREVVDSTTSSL

With `CCc1nn2c(C(F)(F)F)cc(C)nc2c1-c1cc(F)c(OC)cc1F`, a half-maximal response in series [1] (EC50) required 2100 nM.
For `O=C(C[C@H](NCC1CC1)c1ccccc1)N1CCCOc2ccccc21`, the EC50 in [2] is 1 nM.
The molecule `c1ccc(C(NCCNC(c2ccccc2)c2ccccc2)c2ccccc2)cc1` gave a logP in series [3] of 5.9. Besides, the EC50 in [4] was 158 nM. The Emax in series [5] came to 62%.
With `C[C@H](C(=O)NC1COc2ccc(F)cc2C1O)c1ccccc1` (stereo not given in full), in [6], the midpoint of the response, the EC50, lay at 1.21 nM.
For the molecule `CNC(=O)N1CCCC(CN2CCC(OC(c3ccccc3)c3ccccc3)CC2)C1` (stereo not given), the pEC50 in [7] is 6.2. In addition, the EC50 in series [8] was 631 nM.
`O=C(NCc1ccccc1F)C1c2ccccc2CC(=O)N1CC1CC1` (stereo not given) came in with an EC50 in series [6] of 29.2 nM.
Regarding `CNCC[C@H](NCC(=O)N1CCCc2ccccc21)c1ccccc1`, the logP in [3] worked out at 3.
Turning to `COc1ccc(-c2c(C)nn3c(C(F)(F)F)cc(C)nc23)c(F)c1F`, the EC50 in [9], in series [11], in series [12], in series [13] and in series [14] was above 10000 nM in each case. Moreover, the IC50 in [9], in series [11], in series [12], in series [13] and in series [14] was above 10000 nM each time. Further, the Kp at 1 h in series [10] stood at 2.1.
Take `CCc1nc2c(o1)CC(c1ccc(C)cc1C)CC2=O` (stereo not given): the IC50 in [15] was found to be 63 nM.
Consider `C[C@H](C(=O)NC1COc2ccccc2C1S(C)(=O)=O)c1ccc(F)cc1` (stereo not given in full), for which the figures for the EC50 in series [16] and in [17] were 1.8 nM and 6.9 nM, respectively.
As for `COC(=O)c1ccc(-n2c(C)cc(C(=O)CSc3ccc(NC(C)=O)cc3)c2C)cc1`, the EC50 in series [18] turned out to be 930 nM.

The EC50 is the midpoint of the concentration-response curve. Usually logP stands for the decadic logarithm of the partition coefficient of the neutral form, usually between octanol and water. Usually Emax stands for the size of the effect at its maximum, as opposed to the concentration needed. By pEC50 is commonly meant −log10 of the EC50, conventionally taken in molar units. The IC50 is the midpoint of a concentration-inhibition curve.
